# Experimental data as given in PubChem BioAssay AID1920066 (Derbyshire Lab, Chemistry Department, Duke University, 2024).
# pEC50: −log10 of the molar value.
# Legend:
# [1] = competitive binding to P. falciparum Hsp90 – cell lysate, FLECS, GFP-tagged PfHsp90, E. coli lysate, confirmation (AID 1920066); settings: liver stage Plasmodium parasite inhibition
# [2] = tested on: Heat shock protein 90 (Plasmodium falciparum), GFP-tagged; experiment: as above; settings: E. coli lysate PfHsp90-GFP ATP-resin elution, fluorescence; at 500 µM; stronger effect = higher value
Compound,pEC50 [1],relative binding (F/Fo) [2]
Cc1ccc(C(C)C)c(OCC(=O)Nc2cccc3cnccc23)c1,< 4.52,2.15
CCOC(=O)NCc1ccc(-n2c(-c3cc(C(C)C)c(O)cc3O)n[nH]c2=S)cc1,5.82,4.9
NC(=O)c1ccc(NC(=O)CN2CSCC2=O)cc1,< 4.52,2.54
CC[C@@H](C)Nc1cc(C(=O)NC2CC3CCC(C2)N3c2ccc(C(=O)C3CC3)cn2)c(C)cc1C(N)=O (some centres undefined),6.62,3.44
CN(CC(=O)N1CCCC1)c1ncnc2cc(Cl)ccc12,< 4.52,2.06
Cn1cc(S(=O)(=O)N2CCN(C(=O)c3ccc(F)cc3)CC2)cc1C(N)=O,< 5.00,2.06
CS(=O)(=O)c1cccc(C(=O)Nc2nc3ccccc3nc2N2CCCC2)c1,< 4.52,2.59
